Measured values reported in publication PMC9981719, “A novel designed membrane-active peptide for the control of foodborne Salmonella enterica serovar Typhimurium” (Scientific Reports, 2023).
Entries after “also recorded” stand apart in the source; their conditions may differ. Where no end group is shown, it is not given here.

Columns and labels:
[1] = test system: S. Typhimurium ATCC13311; assay type: cell-based, Salmonella enterica serovar Typhimurium; details: at MIC and 2 × MIC
Method: Bacterial killing kinetics of A11 were investigated against S. Typhimurium as described previously. S. Typhimurium ATCC13311 was grown in TSB at 37 °C until reaching the exponential phase. […] The mixture was sampled at 1, 2, 4, 6, 8, 12 and 24 h, and subsequently tenfold serially diluted in 1 × PBS and plated in triplicate on Mueller–Hinton agar (MHA). After incubation at 37 °C for 24 h, the colonies were counted and CFU/ml was calculated. The tests were done in three independent experiments.

[2] = test system: L929 mouse fibroblast cells; experiment: In vitro cytotoxicity, MTT assay; assay type: cell-based; details: 0.98–250 µg/ml, 24 h
Method: The cytotoxicity of A11 was evaluated by the 3-(4,5 dimethylthiazol-2-yl)-2,5-diphenyltetrazolium bromide (MTT) assay. L929 mouse fibroblast cells were cultured in Dulbecco's Modified Eagle Medium (DMEM) supplemented with 1% (v/v) of 100 IU/ml penicillin/streptomycin and 10% (v/v) fetal bovine serum (FBS). The cells were maintained in an air atmosphere containing the 5% CO2 under high humidity at 37 °C. L929 cell lines were seeded into a sterile 96-well plate (1 × 10^4 cells/well) then incubated overnight and treated with different concentrations of A11 (0.98–250 µg/ml) for 24 h. Media were removed, and cultured cells were incubated with 100 µl of MTT solution (4 mg/ml) for 4 h at 37 °C. After removal of MTT solution, the formed formazan was dissolved in 100 µl DMSO. Absorbance was measured by microplate reader at 570 nm; untreated cells served as negative control and melittin-treated cells as a positive control. Cell viability was determined following this equation: Cell viability%=ODTreated/ODControl×100

[3] = test system: 4,5,12:i:- H2-039; assay type: cell-based, Salmonella enterica 4,5,12:i:-; details: strain H2-039
Source text: (§1) All tests were done in triplicate.

[4] = test system: S. Typhimurium ATCC 13311; experiment: Effect of pH on MIC; assay type: cell-based, Salmonella enterica serovar Typhimurium
Method: The pH of peptide solutions was adjusted (pH 3, 5, 7, 9 and 11) using 1 M acetic acid (CH3COOH) and 1 M sodium hydroxide (NaOH). Solutions adjusted to the different pHs without addition of A11 were used as controls. Subsequently, twofold serially diluted solutions (0.98–250 μg/ml) of A11 peptide were prepared with different pHs of peptide solution and incubated at 37 °C for 60 min, transferred to 1 × 10^7 CFU/ml of S. Typhimurium ATCC 13311 suspensions, then incubated at 37 °C with continuous shaking. After 24 h, MIC values were determined.

[5] = test system: S. Typhimurium ATCC 13311; experiment: Effect of temperature on MIC; assay type: cell-based, Salmonella enterica serovar Typhimurium
Method: Two-fold serial dilutions (0.98–250 μg/ml) of A11 peptide were prepared and pre-incubated for 60 min at one of various temperatures (40 °C, 60 °C, 80 °C and 100 °C), and then cooled to 4 °C. After 30 min, 50 μl of heated peptide solutions were cultured with 50 μl of S. Typhimurium ATCC 13311 suspensions (approximately 1 × 10^7 CFU/ml). After 24 h incubation at 37 °C, MICs were determined; all experiments were done in triplicate.

[6] = test system: S. Typhimurium ATCC 13311; assay type: cell-based, Salmonella enterica serovar Typhimurium; details: ATCC 13311, 24 h
Method: Two-fold serial dilutions (0.98–250 μg/ml) of A11 with various concentrations of MgCl2 and NaCl (1 mM MgCl2, 5 mM MgCl2, 1% NaCl, 3% NaCl, 5% NaCl and 10% NaCl) were prepared and incubated at 37 °C for 60 min. Then, 50 μl of A11 in different salt concentrations were incubated with 50 μl of S. Typhimurium ATCC 13311 suspension (approximately 1 × 10^7 CFU/ml) at 37 °C with shaking. After 24 h, MICs were determined; all experiments were done in triplicate.

[7] = test system: S. Typhimurium H1-011; assay type: cell-based, Salmonella enterica serovar Typhimurium; details: strain H1-011
Source text: as §1

[8] = test system: S. Typhimurium H1-015; assay type: cell-based, Salmonella enterica serovar Typhimurium; details: strain H1-015
Source text: as §1

[9] = test system: S. Typhimurium H1-001; assay type: cell-based, Salmonella enterica serovar Typhimurium; details: strain H1-001
Source text: as §1

[10] = test system: Salmonella Typhimurium ATCC 13311; assay type: cell-based, Salmonella enterica serovar Typhimurium; details: ATCC 13311, 18 h
Source text: as §1

[11] = test system: human red blood cells (hRBCs); experiment: Hemolysis assay; assay type: cell-based
Method: The toxicity of all peptide derivatives toward human red blood cells (hRBCs) was investigated by evaluating the amount of hemoglobin released after exposure to peptide. Briefly, hRBCs (blood group O) were collected from a healthy adult volunteer into a heparin-coated polycarbonate tube. The sample was centrifuged for 5 min at 1000g to separate erythrocytes from buffy coat and plasma. The erythrocytes were washed at least three times with 1 × PBS and centrifuged for 5 min at 1000g or until supernatant was clear. The sample was resuspended in PBS to obtain 2% (v/v) hRBCs. To determine hRBC lysis, hRBC suspensions were incubated with equal volumes of various concentrations of peptide (0.98–250 µg/ml) for 1 h at 37 °C. Intact hRBCs were centrifuged for 5 min at 1000g, supernatants were transferred into new 96-well plates, and absorbance was measured at OD 405 nm. Untreated hRBCs (in PBS only) served as negative control (ODNegative) and hRBCs treated with 0.1% Triton X-100 as positive control (ODTritonX-100). Absorbance of samples was converted to percentage hemolysis according to the equation: Hemolysis%=ODSample-ODNegative/ODTriton X-100-ODNegative×100

Substance: WVKKVARKVVKIGRKVAR-NH2 [A11]
- killing of S. Typhimurium within 6 h [1]: more than 99%
- cytotoxicity toward L929 cells (cell viability, MTT) [2]: no cytotoxic activity; also recorded: no cytotoxic effect
- MBC [3]: 125 µg/mL
- MIC [3]: 62.5 µg/mL
- MIC at pH 3 ([4]; peptide solution adjusted to pH 3, incubated 37 °C 60 min, then 24 h with 1 × 10^7 CFU/ml): 125 µg/ml
- MIC at pH 5 ([4]; peptide solution adjusted to pH 5, incubated 37 °C 60 min, then 24 h with bacteria): 31.25 µg/ml
- MIC at pH 7 ([4]; peptide solution adjusted to pH 7, incubated 37 °C 60 min, then 24 h with bacteria): 15.63 µg/ml
- MIC at pH 9 ([4]; peptide solution adjusted to pH 9, incubated 37 °C 60 min, then 24 h with bacteria): 15.63 µg/ml
- MIC at pH 11 ([4]; peptide solution adjusted to pH 11, incubated 37 °C 60 min, then 24 h with bacteria): 31.25 µg/ml
- MIC after 40 °C ([5]; peptide pre-incubated 60 min at 40 °C, cooled to 4 °C, then 24 h at 37 °C with bacteria, triplicate): 15.63 µg/mL
- MIC after 60 °C ([5]; peptide pre-incubated 60 min at 60 °C, cooled to 4 °C, then 24 h at 37 °C with bacteria, triplicate): 15.63 µg/mL
- MIC after 80 °C ([5]; peptide pre-incubated 60 min at 80 °C, cooled to 4 °C, then 24 h at 37 °C with bacteria, triplicate): 15.63 µg/mL
- MIC after 100 °C ([5]; peptide pre-incubated 60 min at 100 °C, cooled to 4 °C, then 24 h at 37 °C with bacteria, triplicate): 15.63 µg/mL
- MIC after heat treatment, same value at each temperature ([5]; various temperatures from 40 to 100 °C for 1 h): 15.63 µg/mL
- MIC in 1 mM MgCl2 [6]: 15.63 µg/mL
- MIC in 5 mM MgCl2 [6]: 31.25 µg/mL
- MIC in 1% NaCl [6]: 15.63 µg/mL
- MIC in 3% NaCl [6]: 125 µg/mL
- MIC in 5% NaCl [6]: 250 µg/mL
- MIC in 10% NaCl [6]: > 250 µg/mL
- MBC [7]: 62.5 (62.5) µg/ml
- MIC [7]: 62.5 (62.5) µg/ml
- MBC [8]: 62.5 (62.5) µg/ml
- MIC [8]: 62.5 (62.5) µg/ml
- MBC [9]: 125 µg/mL
- MIC [9]: 62.5 µg/mL
- MIC, Control [10]: 15.63 µg/mL
- hemolytic activity at the MIC concentration [11]: less than 2%
